Data: patent publication US6703540B1, “Transformation of plants with a chloroperoxidase gene to enhance disease resistance” (The United States of America as represented by the …, priority 2000, dated 2004)

How the values were obtained:
[1] = system: Aspergillus flavus; experiment: Comparative lethalities of oxidants to Aspergillus flavus; format: cell-based; conditions: mM concentrations of oxidants that produce 50% killing of Aspergillus flavus
[2] = system: endogenous peroxidase; experiment: Endogenous peroxidase activity in leaf extracts assayed with guaiacol; format: biochemical, Nicotiana tabacum; conditions: guaiacol assay
Text: The validity of the assay procedure for CPO-P activity in transgenic tobacco was established in the following manner.

[3] = system: Aspergillus flavus; conditions: H2O2 converted to hypochlorite by myeloperoxidase, in vitro; cited from earlier work

Molecule: OCl [HOCl, hypochlorous acid]
- LD50 [1]: 0.30 mM

Molecule: OO [Plant H2O2, hydrogen peroxide]
- LD50 [1]: 18.00 mM

Molecule: CC(=O)OO [HOOAc, peracetic acid]
- LD50 [1]: 0.15 mM

Molecule: [N-]=[N+]=[N-].[Na+] [NaN3]
- inhibition of endogenous peroxidase activity in leaf extracts (in words) [2]: completely inhibited

B1: myeloperoxidase: animal haloperoxidase converting hydrogen peroxide to hypochlorous acid (protein, UniProt P05164 165-745, looked up)
Myeloperoxidase: VTCPEQDKYRTITGMCNNRRSPTLGASNRAFVRWLPAEYEDGFSLPYGWTPGVKRNGFPVALARAVSNEIVRFPTDQLTPDQERSLMFMQWGQLLDHDLDFTPEPAARASFVTGVNCETSCVQQPPCFPLKIPPNDPRIKNQADCIPFFRSCPACPGSNITIRNQINALTSFVDASMVYGSEEPLARNLRNMSNQLGLLAVNQRFQDNGRALLPFDNLHDDPCLLTNRSARIPCFLAGDTRSSEMPELTSMHTLLLREHNRLATELKSLNPRWDGERLYQEARKIVGAMVQIITYRDYLPLVLGPTAMRKYLPTYRSYNDSVDPRIANVFTNAFRYGHTLIQPFMFRLDNRYQPMEPNPRVPLSRVFFASWRVVLEGGIDPILRGLMATPAKLNRQNQIAVDEIRERLFEQVMRIGLDLPALNMQRSRDHGLPGYNAWRRFCGLPQPETVGQLGTVLRNLKLARKLMEQYGTPNNIDIWMGGVSEPLKRKGRVGPLLACIIGTQFRKLRDGDRFWWENEGVFSMQQRQALAQISLPRIICDNTGITTVSKNNIFMSNSYPRDFVNCSTLPALNLASWREAS
- increase in lethality against Aspergillus flavus [3]: ≤ 90 fold
